# In patent US10080779B2, “Method for increasing the expression of anti-microbial peptides by keratinocytes comprising administering a composition comprising IL-17, TNF-alpha and OSM” (Universite D'Angers, priority 2004, dated 2018):
# Columns and labels:
# STAT3 = STAT3 phosphorylation in NHEK (Western blot); assay type: cell-based, human
# Procedure: For STAT3 and MAPK phosphorylation, NHEK were stimulated for 15 min in the presence of the indicated cytokine. Cells were lysed in SDS sample buffer (62.5 mM Tris-HCl pH 6.8, 2% SDS, 10% glycerol, 50 mM DTT, 0.1% bromophenol blue), sonicated and then submitted to SDS-PAGE and transferred onto an Immobilon membrane. The membranes were subsequently incubated overnight with the primary antibody, before being incubated with the appropriate peroxidase-labelled secondary antibody for 60 min. The reaction was visualized by chemiluminescence according to the manufacturer's instructions. Membranes were stripped in 0.1 M glycine pH 2.8 for 2 h and neutralized in 1 M Tris-HCl pH 7.6 before reblotting. For neutralizing experiments, NHEK were incubated with the appropriate antibodies for 2 h before stimulation.
# NHEK [1] = test: Gene expression profiling of NHEK using cDNA macroarrays; assay type: cell-based, human; details: 10 ng/ml OSM 24 h
# Procedure: (§1) Total RNA was isolated as described for PCR studies. DNase treatment, polyA^+ RNA enrichment, ^33P-labelled cDNA probe synthesis, purification and hybridization to custom Atlas array membranes (Bernard, Pedretti et al. 2002) were performed according to Clontech's recommendations (Clontech, Palo Alto, USA). Membranes were exposed for 5 days to a Molecular Dynamics Storm storage screen and scanned using a phosphorimager scanner (Molecular Dynamics Storm analyser, Amersham Biosciences, Uppsala, Sweden). After local background substraction, average signal intensity from duplicate spots was normalized for differences in probe labelling using the values obtained for housekeeping genes (Bernard et al., 2002). For each gene, the OSM-induced modulation was expressed as the relative expression value for stimulated versus control sample. Arbitrarily, only modulation above 2 was considered significant for confirmation using RT-real time PCR assay.
# [2] = test system: reconstituted human epidermis (RHE); test: Gene expression profiling of RHE using cDNA macroarrays; assay type: cell-based; details: 10 ng/ml OSM 24 h
# Procedure: as §1
# For gene expression profiling using cDNA macroarrays, 17 days old RHE were grown for 1 day in SkinEthic maintenance medium prior to stimulation in the absence or presence of OSM for 24 h. Total RNA was isolated and cDNA arrays were performed as described above.
# NHEK [3] = test: RT-real time PCR of S100 mRNA in cytokine-stimulated NHEK; assay type: cell-based, human
# Procedure: Quantitative real time PCR was carried out using the LightCycler-FastStart DNA Master^PLUS SYBR Green I kit (Roche, Mannheim, Germany). The reaction components were 1× FastStart DNA Master^PLUS SYBR Green I and 0.5 μM of forward and reverse primers for S100A7 (forward 5′-[…]-3′ (SEQ ID No: 9) and reverse 5′-[…]-3′ (SEQ ID No: 10)), S100A8 (Pattyn, Speleman et al. 2003), S100A9 (forward 5′-[…]-3′ (SEQ ID No: 11) and reverse 5′-[…]-3′ (SEQ ID No: 12)), hBD2/4 (forward 5′-[…]-3′ (SEQ ID No: 13) and reverse 5′-[…]-3′ (SEQ ID No: 14)), KRT10 (forward 5′-[…]-3′ (SEQ ID No: 15) and reverse 5′-[…]-3′ (SEQ ID No: 16)), and hydroxymethyl-bilane synthase (HMBS) as a housekeeping gene (Vandesompele, De Preter et al. 2002). After cDNA fluorescent quantification using propidium iodide, 250 ng, 25 ng and 2.5 ng of cDNA were added as PCR template in the LightCycler glass capillaries. The cycling conditions comprised a 10 min polymerase activation at 95° C. and 50 cycles at 95° C. for 10 s, 64° C. for 5 s and 72° C. for 18 s with a single fluorescence measurement. […] A mathematical model was used to determine the relative quantification of target genes compared to HMBS reference gene (Pfaffl 2001).
# NHEK [4] = test: Cytokine measurement by ELISA in NHEK culture supernatants; assay type: cell-based, human; details: 10 ng/ml, 96 h
# Procedure: NHEK were obtained as previously described, from surgical samples of healthy breast skin (Boniface et al, 2005). NHEK were cultured to 80% of confluence and then starved for 24 h in Keratinocyte SFM without addition of growth factors before stimulation. Cells were stimulated with or without 10 ng/ml of recombinant IL-17A, OSM, TNFα, IL-22 and IL-1α alone or in combination (R&D systems Europe, Lille, France) during 24 h for mRNA quantification or 48 h to 96 h for protein quantification.
# Levels of BD2, BD3 and CXCL8 were determined using Human ELISA development kit (Peprotech), and CXCL1 and CXCL5 with DuoSet reagents (R&D Systems Europe).
# NHEK [5] = test: Keratinocyte differentiation marker (KDM) mRNA in NHEK (RT-PCR); assay type: cell-based, human; details: 24 h
# Procedure: Normal human epidermal keratinocytes (NHEK) were obtained as previously described, from surgical samples of healthy breast skin (Boniface et al, 2005). NHEK were cultured to 80% of confluence allowing the expression of a large panel of keratinocyte differentiation markers, and then starved for 24 h in Keratinocyte SFM containing 0.03 mM Ca^2+ (Invitrogen Life Technologies, Cergy Pontoise, France) before stimulation. Confluent differentiated cells were stimulated with or without recombinant IL-17A, OSM, TNFα, IL-22 and IL-1α alone at maximum effective concentrations (reported previously around 10 ng/ml (Boniface et al, 2005 and Boniface et al, 2007)) or in combination (R&D systems Europe, Lille, France) during 2 h to 72 h for mRNA quantification. RHE were generated on polycarbonate culture inserts, from surgical samples of paediatric foreskins as previously described (Guenou et al., 2009). RHE were stimulated with or without recombinant IL-17A, OSM, TNFα, IL-22 and IL-1α alone or in combination, with or without a Janus protein Tyrosine Kinases (JAKs) inhibitor 10 μM (Calbiochem, 420099), during 24 h for mRNA quantification or during 72 h for immunohistological analysis.
# NHEK, RHE and murine skin total RNA were isolated using NucleoSpin® RNA II kit (Macherey-Nagel, Hoerdt, France) and reverse-transcribed with SuperScript® II Reverse Transcriptase (Invitrogen Life Technologies) according to the manufacturer's instructions. Quantitative real time PCR was carried out using the LightCycler-FastStart DNA Master SYBR® Green I kit on LightCycler 480 (Roche Diagnostics, Meylan, France). The reaction components were 1×DNA Master Mix, and 0.5 μM of HPLC purified sense and anti-sense oligonucleotides purchased from Eurogentec (Eurogentec France, Angers, France), designed using Primer3 software. The stability of the housekeeping gene expression has been assessed by using GeNorm algorithm. […] Thus samples were normalized to G3PDH housekeeping gene and reported according to the ΔΔCT method as RNA fold increase: 2^ΔΔCT=2^ΔCT sample−ΔCT reference.
substance,measurement,setting,value
"OSM: human recombinant oncostatin M, cytokine of the IL-6 family",STAT3 tyrosine phosphorylation (P-STAT3),STAT3; NHEK stimulated 15 min with the cytokine,strong induction of tyrosine phosphorylation
same,OSM concentration down to which plateau P-STAT3 level is still present,"STAT3; NHEK, 15 min",≥ 3 ng/mL
same,"Expression of CXCL1, CXCL5, CXCL8 and PDGF-A genes",NHEK [1],increased the expression
same,"Expression of calcium binding proteins S100A7, S100A8, S100A9, S100 neutrophil protein",NHEK [1],marked increase
same,"Expression of genes associated with keratinocyte differentiation (CK1, CK10, fillagrin, loricrin)",NHEK [1],down regulates
same,Number of genes with decreased expression,NHEK [1]; array of 586 cDNAs,38 genes
same,Number of genes with increased expression,NHEK [1]; array of 586 cDNAs,36 genes
same,"S100A7, S100A8, S100A9 and S100 neutrophil protein gene expression",[2],strongly up-regulated
same,Time at which S100A7 mRNA increase starts,NHEK [3]; 10 ng/ml OSM,12 h
same,psoriasin/S100A7 mRNA induction above the control value,"NHEK [3]; 10 ng/ml OSM, 96 h",about 290 folds
same,OSM concentration at which plateau of S100A7 mRNA is reached,NHEK [3]; 48-h treatment,6.3 ng/mL
same,psoriasin/S100A7 mRNA increase above control at plateau,"NHEK [3]; 48-h treatment, 6.3 ng/ml OSM",fifty fold increase
same,BD3 production,NHEK [4],significant increase
same,"CXCL1, CXCL5, CXCL8 production, single cytokines",NHEK [4],discrete effect
same,Rank as contributor to keratinocyte differentiation inhibition (removal from M5),NHEK [5],most potent cytokines for keratinocyte differentiation inhibition
same,"mRNA expression of CK1, DSG1, DSC1, FLG, CLSP, LOR and FABPS",NHEK [5]; single cytokines 10 ng/ml,downregulate mRNA expression
